Active and inactive are the calls of the source.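 How the source made its calls: active means STAT3 activation with EC50 of 10 µM or lower; inactive means EC50 above 10 µM or none.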

By EC50 is commonly meant the concentration that produces a half-maximal response.

The assay has as its system U3A STAT3-luciferase reporter, IL-6 stimulated, luminescence. Briefly: STAT3 activators in IL-6-treated reporter cells, late-stage follow-up, counter-screen for STAT1 activator project, U3A cells, luminescence, dose response, powder samples (AID 434940).
Take `O=C(/C=C/Nc1ccccc1F)c1ccc(Br)cc1`: the EC50 was > 55.7 µM (inactive).
`COc1ccc(-c2csc(N3C(=O)CNC3=S)n2)cc1`: the EC50 was > 55.7 µM (inactive).
Consider `Cc1nnc(SCC(=O)Nc2ccc(-c3nc4ccccc4s3)cc2)s1`, for which the EC50 was > 55.7 µM (inactive).
With `Cc1cc(-c2ccncc2)n2ncc(-c3ccccc3)c2n1`, the EC50 is > 55.7 µM (inactive).
On to `COc1ccc2[nH]c3c(c2c1)CCn1c-3nc2ccccc2c1=O`, for which the EC50 is > 18.6 µM (inactive).
With `O=C(Nc1nc2ccccc2s1)c1cc2ccccc2s1` the figure was > 55.7 µM (inactive); with `Cc1ccc(C(=O)Nc2nc3ccccc3s2)s1`, > 55.7 µM (inactive); with `CC(=O)NC(=S)Nc1sc2c(c1C#N)CCCCC2`, > 55.7 µM (inactive).
With `COc1ccc(-c2cc(C)nc3c(-c4ccccc4)cnn23)cc1`, the EC50 is > 55.7 µM (inactive).
Take `CCN(CC)c1ccc2cc(C(=O)Nc3ccccn3)c(=O)oc2c1`: the half-maximal effective concentration (EC50) is 0.804 µM.

The record behind these values is PubChem BioAssay AID434940 (The Scripps Research Institute Molecular Screening Center, 2010).
